# Results from patent US7591997B2, “Method for determining the susceptibility of a subject to infection” (Mabtech AB, priority 2002, dated 2009).
# Test system: Actinobacillus actinomycetemcomitans
# Assay: Standard colony forming units (CFU) assay of LL-37 on A. actinomycetemcomitans
# Assay type: cell-based
# Description: In this study we used an isolate of Actinobacillus actinomycetemcomitans from the oral cavitas of patient (A), kindly provided by Dr A. Johansson (Umeå). Bacteria were routinely grown on tryptic soy agar (Difco) supplemented with 0.5% yeast extract (TSBY) at microaerophilic conditions. The effect of LL-37 on A. actinomycetemcomitans was tested in a standard colony forming units (CFU)-assay (Tanaka et al., Oral Microbiol Immunol. 2000;15(4):226-31) by incubating 10^5 bacteria for 90 min with 20 μg/ml of synthetic LL-37 in 10 mM phosphate buffer pH 7.2 with 1% TSBY.
substance,measurement,setting,value
"LL-37: Human cathelicidin-type antibacterial peptide encoded by the CAMP gene, SEQ ID NO: 3; released from the proform cathelin-LL-37 (LLGDFFRKSKEKIGKEFKRIVQRIKDFLRNLVPRTES; homo sapiens)",reduction in colony counts,"20 μg/ml LL-37 for 90 min, 10^5 bacteria, isolate from patient (A), 10 mM phosphate buffer pH 7.2 with 1% TSBY",3-4 log
same,effect on growth of the bacteria in vitro,A. actinomycetemcomitans isolated from patient (A),could stop the growth
